Where two headings read alike, the source gives them in different places.

One data set relates to liver. As to conditions: use in therapy; cited from earlier work.
For data set [1], the system named is keratinization of hamster tracheal epithelium (tracheal organ culture, vitamin A deficiency). Kind of data set: Reversal of keratinization in tracheal organ culture. Format: cell-based. To be noted: Mesocricetus auratus, 240 h, read-out: ED50 (molar dose effective in suppressing keratinization in one-half of the cultures). The source says:
This keratinization is inhibited, after initiation by chemical compounds, through the use of high energy radiation, or after viral cell transformation, through the use of the novel compounds of the formula (I). The method is described in Cancer Res. 36 (1976), 964-972, Nature 250 (1974), 64-66 and Nature 253 (1975), 47-50.
This assay measures the intrinsic ability of the novel compounds to control epithelial cell differentiation. The significant predictive value of this screening procedure for the potential use of a novel retinoid in the prevention of epithelial tissue tumors is generally accepted. At the same time it is known that any in vitro test system has disadvantages for the prediction of in vivo activity. Apart from these fundamental limitations, the tracheal organ culture assay is one of the most valuable procedures for evaluating the biological activity of a novel retinoid.
The assay procedure determines the ability of the two compounds to reverse keratinization in a defined in vitro system. Tracheas from hamsters in a very early stage of vitamin A deficiency were placed in organ culture. At that time, the animals were 29-30 days old (having been weaned at 21 days) and were still gaining some weight. Their average weight was 47-52 g. Their tracheal epithelium was generally low columnar or cuboidal, with only occasional patches of squamous metaplasia. Each trachea was opened from the larynx to the carina along the membranous dorsal wall and placed in culture in a serum-free medium (CMRL-1066 supplemented with crystalline bovine insulin, 1.0 μg/ml; hydrocortisone hemisuccinate, 0.1 μg/ml; glutamine, 2 mM; penicillin, 100 units/ml; and streptomycin, 100 μg/ml). The cultures were gassed with a mixture of 50% of oxygen, 45% of nitrogen and 5% of carbon dioxide. The culture dishes were rocked through 35.5-36.0 degrees to contact the tracheas with both gas and medium. All tracheas were maintained in medium containing no retinoid for the first 3 days. At the end of the 3 days, some tracheas were harvested. Almost all of these tracheas had significant squamous metaplasia. […]

The subject of data set [2] is male Sprague-Dawley CD rats. Kind of data set: Comparative oral toxicity in rats (inhibition of growth and lethality over two weeks). As to conditions: for Proportion of survivors, Day 6 / Proportion of survivors, Day 11: 25 μmole/day in corn oil with 4% chloroform; for Average weight, Day 6 / Average weight, Day 11: 25 μmole/day, initial weight 95-110 g; for Average weight, Day 6: Day 6, mean with standard deviation; for Average weight, Day 11: Day 11, mean with standard deviation. As for the experimental part: 2. Comparative toxicity of all-E-N-(tetrazol-5-yl)-retinamide and 13-Z-N-(tetrazol-5-yl)-retinamide.
(a) Male Sprague-Dawley CD rats from Charles River (50-75 g) were randomized and weighed daily for one week before the start of the experiment. At the beginning of the toxicological screen the animals weighed 95-110 g.
(b) The vehicle for the test substances was corn oil containing 4% of chloroform. The dose was 25 μmole of test substance/day, in 0.5 ml of vehicle.

Data set [3] relates to comedones induced by coal tar (rabbit ear model). Kind of data set: Comedolytic activity in a rabbit ear model. In kind it is in vivo, albino rabbit. To be noted: topical, two weeks, decrease in comedones vs control ear. As for the experimental part:
Comedo formation was induced by topical application (0.5 ml), once daily, of 5% coal tar in Polyan® (an ester of lanolin alcohol and linoleic acid, from Amerchol Corp., USA) to both ears of albino rabbits on 5 successive days per week, for two weeks. Following this, the test substance, in a 70:30 volume/volume alcohol:propylene glycol mixture, was applied topically, in an amount of 0.5 ml, to the inner surface of one ear of each rabbit once daily on 5 consecutive days per week, for two weeks. The contra-lateral ear of each rabbit served as an untreated control.
Following a subsequent treatment (~72 hours) with the test substance, the rabbits were sacrificed. A sample of skin, of about 6 cm^2, was removed from the pinna of each ear just external to the auditory canal and was divided into pieces of about 1 cm^2.
These pieces of skin were immersed in water at 60° C. for 2 minutes. The epidermis was carefully peeled off using the flat end of a spatula and fine forceps, and was placed on a microscope slide, with the dermal side facing upward. After overnight airdrying, the slide was examined under the stereomicroscope. Follicular extensions of horny material remain intact. Comedones show up as discrete, uniformly shaped, cylindrical to global horny masses, whose size and number are proportional to the […].
The comedolytic effect was determined by the decrease in the number of comedones in comparison with the control ear.

The test system of data set [4] is dorsal skin (erythema and scaling). On the set-up: species or system New Zealand white rabbit (male). As to conditions: rabbit, in vivo. As for the experimental part:
4. Topical tolerance study of the test substances Six New Zealand white male rabbits were used in each study. Sites, each about 6 cm^2 in size, were shaved on the dorsal trunk of each test animal. The test substances were dissolved in a 70:30 volume/volume alcohol:propylene glycol mixture and 0.2 ml of the solution was applied topically from an automatic micropipette by gentle inunction to a pre-designated site twice daily, with an interval of six hours, for nine successive days. All sites were subjectively evaluated for erythema and scaling at the beginning of the test and before each morning application. A numerical grading scale of 0 to 3 was used (0=no reaction, 1=mild, 2=moderate, 3=severe).

For the next data set, the system named is the organism. As to conditions: in vivo; cited from earlier work.
[5] abbreviates: hamster tracheal organ culture, serum-free medium, 10 days, extrapolated from dose-response curves.

In the case of `CC(=O)OC/C=C(C)/C=C/C=C(C)/C=C/C1=C(C)CCCC1(C)C` [retinyl acetate], in the data set with liver, the “liver retinoid concentration and organ damage” value was “intolerably high retinoid concentration in the liver leads to severe and irreversible damage to the organ”.
With `CC1=C(/C=C/C(C)=C/C=C/C(C)=C/C(=O)O)C(C)(C)CCC1` [all-E-retinoic acid, reference compound], the IC50 in data set [1] was found to be 0.03 nM. Moreover, in data set [2], the “Proportion of survivors, Day 6” value is 3/5; the “Proportion of survivors, Day 11” value is on record as 0/5; the “Average weight, Day 6” value turned out to be 95 ± 2. Also, in data set [3] (0.05% concentration), the “% comedolytic activity” value came out at 58.3%. Moreover, in data set [4], the Rating erythema result is given as “moderate”, the Rating scaling result is given as “moderate”, the mean erythema came out at 2.3 and the mean scaling was 1.9. Moreover, the toxic effects entry in the data set with the organism was “even slightly increased doses cause severe damage to the organism, for example with symptoms of hypervitaminosis-A”.
On to `CC1=C(/C=C/C(C)=C/C=C/C(C)=C\C(=O)O)C(C)(C)CCC1` [13-Z-retinoic acid, reference compound], for which, in data set [4], the Rating erythema result is given as “severe”, the Rating scaling result is listed as “severe”, the mean erythema amounted to 3.0 and the mean scaling is on record as 3.0.
`CC1=C(/C=C/C(C)=C/C=C/C(C)=C/C(=O)Nc2nnn[nH]2)C(C)(C)CCC1` [all-E-N--(tetrazol-5-yl)-retinamide, all-E-N-(tetrazol-5-yl)-retinamide]: the IC50 in data set [1] (setting [5]) was 0.1 nM. For the same compound, in data set [2], the “Proportion of survivors, Day 6” value was 3/4; the “Proportion of survivors, Day 11” value was 3/4; the “Average weight, Day 6” value is recorded as 124 ± 6; the “Average weight, Day 11” value came out at 155 ± 4. Further, the “% comedolytic activity” value in data set [3] (0.025% concentration) came to 35.1%. For the same compound, in data set [4], the Rating erythema entry is given as “mild”, the Rating scaling entry is given as “none”, the mean erythema is given as 0.8 and the mean scaling is listed as 0.
With `CC1=C(/C=C/C(C)=C/C=C/C(C)=C/CO)C(C)(C)CCC1` [retinol], in the data set on liver, the “liver retinoid concentration and organ damage” value is “intolerably high retinoid concentration in the liver leads to severe and irreversible damage to the organ”.
As for `CC1=C(/C=C/C(C)=C/C=C/C(C)=C\C(=O)Nc2nnn[nH]2)C(C)(C)CCC1` [13-Z-N--(tetrazol-5-yl)-retinamide, 13-Z-N-(tetrazol-5-yl)-retinamide], the IC50 in data set [1] (setting [5]) was 0.2 nM. Also, in data set [2], the “Proportion of survivors, Day 6” value was 2/5; the “Proportion of survivors, Day 11” value is recorded as 2/5; the “Average weight, Day 6” value was 122 ± 18; the “Average weight, Day 11” value stood at 140 ± 27. Besides, the “% comedolytic activity” value in data set [3] (0.1% concentration) is listed as 39.4%. For the same compound, in data set [4], the Rating erythema entry is recorded as “mild”, the Rating scaling result is “none”, the mean erythema is on record as 0.5 and the mean scaling came to 0.1.

The record behind these values is patent publication US4459404A, “Amides of retinoic acids with 5-amino tetrazole” (BASF Aktiengesellschaft, priority 1980, dated 1984).
